# Experimental data published in EP4299131A1, “HYDROPHILIC PHENALENONES AND THEIR USE IN ANTIMICROBIAL PHOTODYNAMIC THERAPY” (Centre national de la recherche scientifique, priority 2022, dated 2024).
# Like-named read-outs stand apart in the source and are kept apart here.
# What was measured:
# [1] = tested on: Pseudomonas aeruginosa CIP76.110; assay: Antibacterial photodynamic inactivation, MIC/MBC by micromethod in 96-well plates; format: cell-based; conditions: for MBC / MIC: Pseudomonas aeruginosa
# Protocol: (§1) To evaluate the biological activity of the molecules, the minimal inhibitory concentration (MIC) and the minimal bactericidal concentration (MBC) were determined on bacterial cultures (Staphylococcus aureus CIP76.25, Pseudomonas aeruginosa CIP76.110) by micromethod in 96-well plates. Briefly, bacterial cultures in log-phase were diluted in sterile PBS 1X at a concentration equivalent to 4×10^6 UFC/mL. Serial dilutions of different molecules were performed in PBS 1X to a final concentration from 200 to 1.5 µM and 50 µl of each dilution were added in the microplate wells. Then, 50 µl of diluted bacterial culture were added in each well. Two different plates for each strain were prepared: one plate for the dark condition and a second plate for light irradiation.
# (§2) Two controls were included; a bacterial growth control with no molecule added and a negative control with PBS without bacterial inoculum and no molecules.
# (§3) The microplate was incubated at 37°C for 1h in dark condition. After that, bacteria were irradiated with LED white light (total fluence: 25J/cm^2). During the time of irradiation, the second plate was maintained in the dark. Then, 100 µL of 2-fold concentrated TS broth were added in each well and the microplate was incubated at 37°C for 24h. The MIC values were determined as the lowest concentration without observed bacterial growth. For determination of the MBC, 100 µl from wells where no evident growth was observed were diluted in physiological water (NaCl 0.9%). All 10-fold serial dilutions were spread on TS agar plates using an automatic plater (easySPIRAL®, Interscience, Saint-Nom La Bretêche, France). After incubation at 37 °C for 24 h, colonies were counted to determine total CFU per mL (CFU/mL). The MBC corresponds to the concentration of the active compound for which 99.99% of the bacteria have been killed (i.e. 4 log reduction compared to the untreated control). Three independent experiments were performed with each strain.
# [2] = tested on: Staphylococcus aureus CIP76.25; assay: as above; format: cell-based
# Protocol: as §1, §2, §3
# [3] = Photochemical stability under blue light monitored by 1H NMR; format: physicochemical; conditions: D2O, irradiation at 470 nm (3.5 mW.cm^-2) for 24h, under oxygen or Argon
# Protocol: Photochemical stability: In an NMR tube, a solution of dyes 1a-c or SAPYR in D2O ([C] = 17.5 mmol/L) was irradiated at 470 nm (3.5 mW.cm^-2) under oxygen or Argon atmosphere (the gas was bublled solution was oxygenated or degassed by bubbling through the solution for 5 minutes and put under gas atmosphere). 1H NMR spectra were recorded after 24h irradiation time for each sample.
# [4] = actinometer value of SAPYR, excitation at 355 nm, ref [27]; cited from earlier work
# [5] = UV/Visible and fluorescence spectroscopy, fluorescence lifetime (TCSPC); format: physicochemical; conditions: for ΦF (fluorescence quantum yield): 6-ethoxyphenalenone as actinometer; for ε: at the longest-wavelength absorption maximum; for λmax(em): excited at 400 nm
# Protocol: UV/Visible and fluorescence spectroscopy: UV-Vis spectra were recorded on an Agilent 8453 Diode-Array spectrophotometer in the range of 250-700 nm. Emission spectra were measured in an ISS PC1 spectrofluorometer at room temperature. Fluorescence quantum yields were determined using equation (1) and 6-ethoxy-phenalenone in methanol as reference. ΦF,sample = ΦF,reference (Areference)/(Asample)(Isample)/(Ireference)(((ηsample)/(ηreference)))^2 [formula] ΦF is the fluorescence quantum yields. A: is the absorbance in the wavelength of excitation, I correspond to area of the emission spectra and η is the refractive index of the solvent. The excitation wavelength was 400 nm for all steady state fluorescence experiments.
# Luminescence lifetime measurements were carried out using a PicoQuant FluoTime 200 fluorescence lifetime spectrometer with a multichannel scaler (PicoQuant's Timeharp 250) with the time correlated single photon counting (TCSPC) method. As excitation resource laser 405 nm was employed.
# [6] = Singlet oxygen quantum yield by 1O2 phosphorescence at 1270 nm; format: physicochemical; conditions: phosphorescence method
# Protocol: Singlet oxygen quantum yield measurements: Lifetime decays of singlet oxygen, O2(^1Δg), were acquired with a FluoTime 200 equipped with multichannel scaler Nanoharp 200. […] For the detection at 1270 nm a NIR PMT H10330A (Hamamatsu) was employed. The O2(^1Δg) quantum yields (ΦΔ) were determined by comparing the intensity at zero time of the 1270 nm signals to those of optically-matched solutions of SAPYR or Eosin Y as references.
# [7] = Singlet oxygen quantum yield by chemical trapping with ADPA; format: physicochemical; conditions: D2O (470 nm); ADPA as chemical probe, Eosin Y as reference
# Protocol: Chemical trapping experiments: Quantum yields of singlet oxygen produced by 1a-c was evaluated by monitoring the UV/Visible absorption change in an Agilent 8453 Diode-Array spectrophotometer of 3,3'-anthracene-9,10-diyldipropanoic acid (ADPA) which is a well-known singlet oxygen trap. […] A solution of 1a-c in deuterated water (A473nm = 0.06) was prepared and an aliquot of ADPA in deuterated water was added to reach A378nm = 0.74. The photoabsorption spectral change of ADPA solution with photosensitizers 1a-c was monitored following the decrease of the band at 382 nm. Plots of Ln(A/A0) vs. time (s) give linear graphs for which the slope is the experimental kinetic rate constant (k, s^-1) (Ao is the initial absorption intensity and A is the absorption intensity at the time t). From comparison of experimental rate constants between phenalenone derivatives 1a-c and two selected actinometers (Eosin Y and Riboflavin, see supporting information for results using Riboflavin) using optically-matched solutions, singlet oxygen quantum yields of the photosensitizers ΦΔ can be determined from the following equation: φΔ = (k)/(kref) × φΔ,ref [formula]
# [8] = CIP76, light or radiation study
# [9] = CIP76, light or radiation study, P.a, light (L), LED white light, total fluence 25 J/cm^2, read-out: MBC
# [10] = CIP76, light or radiation study, P.a, light (L), LED white light, total fluence 25 J/cm^2, read-out: MIC
# [11] = CIP76, P.a, dark (D), read-out: MBC
# [12] = CIP76, P.a, dark (D), read-out: MIC
# [13] = CIP76, S.a, dark (D), read-out: MBC
# [14] = CIP76, S.a, dark (D), read-out: MIC
# [15] = CIP76, light or radiation study, S.a, light (L), LED white light, total fluence 25 J/cm^2, read-out: MBC
# [16] = CIP76, light or radiation study, S.a, light (L), LED white light, total fluence 25 J/cm^2, read-out: MIC
# [17] = D2O (470 nm), Eosin Y as actinometer
# [18] = D2O, SAPYR as actinometer, excitation at 355 nm
# [19] = DMSO, SAPYR as actinometer, excitation at 355 nm
# [20] = MeOH, SAPYR as actinometer, excitation at 355 nm
smiles,measurement,setting,value
"O=C1C(C[n+]2ccccc2)=Cc2cccc3cccc1c23 [SAPYR, reference compound]",MBC,[1]; [8],> 200 µM
same,MIC,[1]; [8],> 200 µM
same,photodynamic effects,[1]; illumination under white light,did not exhibit any photodynamic effects
same,MBC,[2]; [8],167 µM
same,MIC,[2]; [8],83.3 µM
same,photochemical stability,[3],complete decomposition
same,ΦΔ,[4],1.02
"COc1ccc2c3c(cc(C[n+]4ccccc4)c(-c4ccccc4)c13)C(=O)C=C2.[Cl-] [1b, 1-((6-methoxy-1-oxo-7-phenyl-1H-phenalen-8-yl)methyl)pyridin-1-ium chloride]",MBC,[1]; [9],> 200 µM
same,MIC,[1]; [10],> 200 µM
same,MBC,[1]; [11],> 200 µM
same,MIC,[1]; [12],> 200 µM
same,MBC,[2]; [13],> 200 µM
same,MIC,[2]; [14],> 200 µM
same,MBC,[2]; [15],67 µM
same,MIC,[2]; [16],50 µM
same,TF (singlet lifetime),[5]; DMSO,6.24 ns
same,Δλ (Stokes shift),[5]; DMSO,91 nm
same,λabs,[5]; DMSO,444 nm
same,ΦF (fluorescence quantum yield),[5]; DMSO,0.067
same,ε,[5]; DMSO,10472 M⁻¹ cm⁻¹
same,λmax(em),[5]; DMSO,535 nm
same,TF (singlet lifetime),[5]; H2O,7.15 ns
same,Δλ (Stokes shift),[5]; H2O,88 nm
same,λabs,[5]; H2O,463 nm
same,ΦF (fluorescence quantum yield),[5]; H2O,0.192
same,ε,[5]; H2O,9259 M⁻¹ cm⁻¹
same,λmax(em),[5]; H2O,551 nm
same,TF (singlet lifetime),[5]; MeOH,7.65 ns
same,Δλ (Stokes shift),[5]; MeOH,95 nm
same,λabs,[5]; MeOH,447 nm
same,ΦF (fluorescence quantum yield),[5]; MeOH,0.209
same,ε,[5]; MeOH,9344 M⁻¹ cm⁻¹
same,λmax(em),[5]; MeOH,542 nm
same,ΦΔ,[6]; [17],0.11
same,ΦΔ,[6]; [18],0.06
same,ΦΔ,[6]; [19],0.63
same,ΦΔ,[6]; [20],0.12
same,ΦΔ,[7],0.15
"COc1ccc2c3c(cc(CN(CCO)CCO)c(-c4ccccc4)c13)C(=O)C=C2.Cl [1c, 8-((bis(2-hydroxyethyl)amino)methyl)-6-methoxy-7-phenyl-1H-phenalen-1-one chloride]",MBC,[1]; [9],41.7 µM
same,MIC,[1]; [10],33 µM
same,MBC,[1]; [11],> 200 µM
same,MIC,[1]; [12],> 200 µM
same,MBC,[2]; [13],> 200 µM
same,MIC,[2]; [14],> 200 µM
same,MBC,[2]; [15],41.7 µM
same,MIC,[2]; [16],41.7 µM
same,TF (singlet lifetime),[5]; DMSO,5.38 ns
same,Δλ (Stokes shift),[5]; DMSO,92 nm
same,λabs,[5]; DMSO,441 nm
same,ΦF (fluorescence quantum yield),[5]; DMSO,0.071
same,ε,[5]; DMSO,11984 M⁻¹ cm⁻¹
same,λmax(em),[5]; DMSO,533 nm
same,TF (singlet lifetime),[5]; H2O,7.39 ns
same,Δλ (Stokes shift),[5]; H2O,92 nm
same,λabs,[5]; H2O,459 nm
same,ΦF (fluorescence quantum yield),[5]; H2O,0.217
same,ε,[5]; H2O,10053 M⁻¹ cm⁻¹
same,λmax(em),[5]; H2O,551 nm
same,TF (singlet lifetime),[5]; MeOH,8.24 ns
same,Δλ (Stokes shift),[5]; MeOH,96 nm
same,λabs,[5]; MeOH,446 nm
same,ΦF (fluorescence quantum yield),[5]; MeOH,0.233
same,ε,[5]; MeOH,12256 M⁻¹ cm⁻¹
same,λmax(em),[5]; MeOH,542 nm
same,ΦΔ,[6]; [17],0.09
same,ΦΔ,[6]; [18],0.06
same,ΦΔ,[6]; [19],0.91
same,ΦΔ,[6]; [20],0.15
same,ΦΔ,[7],0.08
"COc1ccc2c3c(cc(C[N+](C)(C)Cc4ccccc4)c(-c4ccccc4)c13)C(=O)C=C2.[Cl-] [1a, N-benzyl-1-(6-methoxy-1-oxo-7-phenyl-1H-phenalen-8-yl)-N,N-dimethylmethanaminium chloride]",MBC,[1]; [9],> 200 µM
same,MIC,[1]; [10],> 200 µM
same,MBC,[1]; [11],> 200 µM
same,MIC,[1]; [12],> 200 µM
same,MBC,[2]; [13],> 200 µM
same,MIC,[2]; [14],167 µM
same,MBC,[2]; [15],133 µM
same,MIC,[2]; [16],50 µM
same,TF (singlet lifetime),[5]; DMSO,6.04 ns
same,Δλ (Stokes shift),[5]; DMSO,92 nm
same,λabs,[5]; DMSO,441 nm
same,ΦF (fluorescence quantum yield),[5]; DMSO,0.069
same,ε,[5]; DMSO,11426 M⁻¹ cm⁻¹
same,λmax(em),[5]; DMSO,533 nm
same,TF (singlet lifetime),[5]; H2O,7.65 ns
same,Δλ (Stokes shift),[5]; H2O,90 nm
same,λabs,[5]; H2O,459 nm
same,ΦF (fluorescence quantum yield),[5]; H2O,0.241
same,ε,[5]; H2O,9239 M⁻¹ cm⁻¹
same,λmax(em),[5]; H2O,549 nm
same,TF (singlet lifetime),[5]; MeOH,8.15 ns
same,Δλ (Stokes shift),[5]; MeOH,95 nm
same,λabs,[5]; MeOH,447 nm
same,ΦF (fluorescence quantum yield),[5]; MeOH,0.221
same,ε,[5]; MeOH,9363 M⁻¹ cm⁻¹
same,λmax(em),[5]; MeOH,542 nm
same,ΦΔ,[6]; [17],0.12
same,ΦΔ,[6]; [18],0.06
same,ΦΔ,[6]; [19],0.79
same,ΦΔ,[6]; [20],0.10
same,ΦΔ,[7],0.09
